From patent US10294202B2, “Pyrrolidinones as herbicides” (FMC Corporation, priority 2013, dated 2019)

Key:
sedge, umbrella = assay: Test B flooded paddy test; type: in vivo, Cyperus difformis; conditions: Flood, scale of 0 to 100 where 0 is no effect and 100 is complete control
Outline: (§1)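 Treatment was made at the 2-leaf stage by dosing the standing floodwater, kept 3 cm above soil level for the whole test. Greenhouse exposure lasted 13 to 15 days. Response is a visual percent rating relative to controls, where a dash indicates no test result.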

velvetleaf = assay: Test A pre-/postemergence herbicide test; type: in vivo, Abutilon theophrasti
Outline: (§2)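 Visual 0–100 ratings (100 = complete control) made about 10 days after treatment, greenhouse-held plants compared with untreated controls. Treatments: postemergence sprays on one- to two-leaf plants (2–10 cm tall) and preemergence directed soil sprays after planting in loam–sand, chemicals formulated in non-phytotoxic solvent containing surfactant.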

corn = assay: Test A pre-/postemergence herbicide test; type: in vivo, Zea mays
Outline: as §2

morningglory = assay: Test A pre-/postemergence herbicide test; type: in vivo, Ipomoea spp.
Outline: as §2

rice = assay: Test B flooded paddy test; type: in vivo, Oryza sativa; conditions: Flood, scale of 0 to 100 where 0 is no effect and 100 is complete control
Outline: as §1

giant foxtail = assay: Test A pre-/postemergence herbicide test; type: in vivo, Setaria faberii
Outline: as §2

crabgrass, large = assay: Test A pre-/postemergence herbicide test; type: in vivo, Digitaria sanguinalis
Outline: as §2

wheat = assay: Test A pre-/postemergence herbicide test; type: in vivo, Triticum aestivum
Outline: as §2

pigweed = assay: Test A pre-/postemergence herbicide test; type: in vivo, Amaranthus retroflexus
Outline: as §2

barnyardgrass [1] = assay: Test A pre-/postemergence herbicide test; type: in vivo, Echinochloa crus-galli
Outline: as §2

barnyardgrass [2] = assay: Test B flooded paddy test; type: in vivo, Echinochloa crus-galli; conditions: Flood, scale of 0 to 100 where 0 is no effect and 100 is complete control
Outline: as §1

ducksalad = assay: Test B flooded paddy test; type: in vivo, Heteranthera limosa; conditions: Flood, scale of 0 to 100 where 0 is no effect and 100 is complete control
Outline: as §1

[3] = Postemergence, 125 g ai/ha, 0 to 100 scale, 0 is no effect, 100 is complete control
[4] = Postemergence, 500 g ai/ha, 0 to 100 scale (0 no effect, 100 complete control)
[5] = Preemergence, 125 g ai/ha, 0 to 100 scale where 0 is no effect and 100 is complete control
[6] = preemergence, 500 g ai/ha, 0 to 100 scale, 0 is no effect and 100 is complete control

SMILES	Plant response rating, Velvetleaf (velvetleaf; [6])	Plant response rating, Corn (corn; [3])	Plant response rating, Corn (corn; [4])	Plant response rating, Corn (corn; [5])	Plant response rating, Corn (corn; [6])	Plant response rating, Morningglory (morningglory; [3])	Plant response rating, Morningglory (morningglory; [4])	Plant response rating, Morningglory (morningglory; [5])	Plant response rating, Morningglory (morningglory; [6])	Plant response rating, Foxtail, Giant (giant foxtail; [3])	Plant response rating, Foxtail, Giant (giant foxtail; [4])	Plant response rating, Foxtail, Giant (giant foxtail; [5])	Plant response rating, Foxtail, Giant (giant foxtail; [6])	Plant response rating, Crabgrass, Large (crabgrass, large; [3])	Plant response rating, Crabgrass, Large (crabgrass, large; [4])	Plant response rating, Crabgrass, Large (crabgrass, large; [5])	Plant response rating, Crabgrass, Large (crabgrass, large; [6])	Plant response rating, Wheat (wheat; [3])	Plant response rating, Wheat (wheat; [4])	Plant response rating, Wheat (wheat; [5])	also measured
O=C1NCC(c2ccc(OC(F)(F)F)cc2)C1C(=O)Nc1ccccc1C(F)(F)F (racemic) [Compound 258]	0	0	20	0	0	0	0	0	0	60	80	50	90	80	90	90	90	0	30	0	Plant response rating, Sedge, Umbrella (sedge, umbrella; 250 g ai/ha): 40; Plant response rating, Velvetleaf (velvetleaf; [3]): 0; Plant response rating, Velvetleaf (velvetleaf; [4]): 0; Plant response rating, Velvetleaf (velvetleaf; [5]): 0; Plant response rating, Rice (rice; 250 g ai/ha): 0; Plant response rating, Wheat (wheat; [6]): 0; Plant response rating, Pigweed (pigweed; [3]): 0; Plant response rating, Pigweed (pigweed; [4]): 0; Plant response rating, Pigweed (pigweed; [5]): 0; Plant response rating, Pigweed (pigweed; [6]): 0; Plant response rating, Barnyardgrass (barnyardgrass [1]; [3]): 40; Plant response rating, Barnyardgrass (barnyardgrass [1]; [4]): 80; Plant response rating, Barnyardgrass (barnyardgrass [1]; [5]): 20; Plant response rating, Barnyardgrass (barnyardgrass [1]; [6]): 90; Plant response rating, Barnyardgrass (barnyardgrass [2]; 250 g ai/ha): 0; Plant response rating, Ducksalad (ducksalad; 250 g ai/ha): 60
O=C1NCC(c2ccc(C(F)(F)F)cc2F)C1C(=O)Nc1cccc(F)c1F (racemic) [Compound 260]	40	0	0	0	10	0	50	20	50	80	90	80	90	90	90	90	90	0	0	0	Plant response rating, Sedge, Umbrella (sedge, umbrella; 1000 g ai/ha): 0; Plant response rating, Rice (rice; 1000 g ai/ha): 0; Plant response rating, Wheat (wheat; [6]): 0; Plant response rating, Pigweed (pigweed; [3]): 60; Plant response rating, Pigweed (pigweed; [4]): 70; Plant response rating, Pigweed (pigweed; [5]): 60; Plant response rating, Pigweed (pigweed; [6]): 80; Plant response rating, Barnyardgrass (barnyardgrass [1]; [3]): 70; Plant response rating, Barnyardgrass (barnyardgrass [1]; [4]): 80; Plant response rating, Barnyardgrass (barnyardgrass [1]; [5]): 70; Plant response rating, Barnyardgrass (barnyardgrass [1]; [6]): 80; Plant response rating, Barnyardgrass (barnyardgrass [2]; 1000 g ai/ha): 0; Plant response rating, Ducksalad (ducksalad; 1000 g ai/ha): 95
O=C1NCC(c2ccc(C(F)(F)F)cc2F)C1C(=O)Nc1ccccc1C(F)(F)F (racemic) [Compound 261]	0	0	0	0	0	0	0	0	0	0	60	10	70	70	80	80	90	0	0	0	Plant response rating, Sedge, Umbrella (sedge, umbrella; 1000 g ai/ha): 0; Plant response rating, Velvetleaf (velvetleaf; [3]): 0; Plant response rating, Velvetleaf (velvetleaf; [4]): 30; Plant response rating, Velvetleaf (velvetleaf; [5]): 0; Plant response rating, Rice (rice; 1000 g ai/ha): 0; Plant response rating, Wheat (wheat; [6]): 0; Plant response rating, Pigweed (pigweed; [3]): 0; Plant response rating, Pigweed (pigweed; [4]): 40; Plant response rating, Pigweed (pigweed; [5]): 0; Plant response rating, Pigweed (pigweed; [6]): 0; Plant response rating, Barnyardgrass (barnyardgrass [1]; [3]): 0; Plant response rating, Barnyardgrass (barnyardgrass [1]; [4]): 50; Plant response rating, Barnyardgrass (barnyardgrass [1]; [5]): 0; Plant response rating, Barnyardgrass (barnyardgrass [1]; [6]): 0; Plant response rating, Barnyardgrass (barnyardgrass [2]; 1000 g ai/ha): 0; Plant response rating, Ducksalad (ducksalad; 1000 g ai/ha): 90
